From patent US12723063B2, “GIPR-agonist compounds” (Eli Lilly and Company, priority 2019, dated 2026)
*1 amine or outer side, *2 acyl side, *3 side chain or, on linkers, in order; H or OH if unused. Where a SMILES comes first, the peptide text is derived from it. Side-chain parts run from the residue outwards. [ ]: non-standard residue; d: D form. The star is where a group is joined. C20 diacid = O=C(O)CCCCCCCCCCCCCCCCCCC(=O)*; C18 diacid = O=C(O)CCCCCCCCCCCCCCCCC(=O)*; αMePhe(2-F) = C[C@](N)(Cc1ccccc1F)C(=O)O; γGlu = O=C(O)[C@H](CCC(=O)[*:2])N[*:1]; αMeF = C[C@](N)(Cc1ccccc1)C(=O)O; αMeL = CC(C)C[C@](C)(N)C(=O)O; AEEA = NCCOCCOCC(=O)O; Aib = CC(C)(N)C(=O)O

Key:
[1] = target: T1, human glucose-dependent insulinotropic peptide receptor (GIPR) (Homo sapiens, UniProt P48546); assay: cAMP functional assay (HTRF) in HEK293 cells in presence of 0.1% casein; assay type: cell-based; settings: HEK293 cells expressing human GIPR, geometric mean, read-out: hGIPR cAMP Rel EC50 nM (SEM, n)
T1 construct: expressed in transfected cells; host or cells: HEK293
T1 sequence (P48546 22-466): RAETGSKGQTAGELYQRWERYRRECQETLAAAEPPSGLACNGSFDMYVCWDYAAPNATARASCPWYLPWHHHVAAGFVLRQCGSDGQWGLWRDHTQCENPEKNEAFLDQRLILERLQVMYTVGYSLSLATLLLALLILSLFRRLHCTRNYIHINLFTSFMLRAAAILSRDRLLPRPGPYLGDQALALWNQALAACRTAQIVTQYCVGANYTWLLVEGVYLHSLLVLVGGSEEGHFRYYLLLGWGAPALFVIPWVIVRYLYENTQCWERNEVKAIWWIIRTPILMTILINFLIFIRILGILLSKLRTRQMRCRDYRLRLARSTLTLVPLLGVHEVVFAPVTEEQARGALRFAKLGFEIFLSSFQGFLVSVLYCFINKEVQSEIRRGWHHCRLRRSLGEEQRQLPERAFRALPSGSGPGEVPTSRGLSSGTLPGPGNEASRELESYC

[2] = target: T2, human glucagon receptor (GcgR) (Homo sapiens, UniProt P47871); assay: as above; assay type: cell-based; settings: HEK293 cells expressing human GcgR, geometric mean, read-out: hGcgR cAMP Rel EC50 nM (SEM, n)
T2 construct: expressed in transfected cells; host or cells: HEK293
T2 sequence (P47871 26-477): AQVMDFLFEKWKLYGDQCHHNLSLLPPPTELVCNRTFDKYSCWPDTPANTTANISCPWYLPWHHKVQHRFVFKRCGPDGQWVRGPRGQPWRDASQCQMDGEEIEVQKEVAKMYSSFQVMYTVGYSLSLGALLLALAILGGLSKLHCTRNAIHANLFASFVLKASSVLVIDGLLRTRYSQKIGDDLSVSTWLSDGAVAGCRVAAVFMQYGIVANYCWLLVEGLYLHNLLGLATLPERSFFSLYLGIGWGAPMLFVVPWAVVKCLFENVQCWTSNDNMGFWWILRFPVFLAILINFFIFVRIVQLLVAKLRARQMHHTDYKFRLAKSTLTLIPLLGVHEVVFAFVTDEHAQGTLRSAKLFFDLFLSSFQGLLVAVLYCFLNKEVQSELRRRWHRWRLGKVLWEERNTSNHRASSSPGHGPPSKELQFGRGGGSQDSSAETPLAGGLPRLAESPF

SMILES | EC50 [1] [nM] | EC50 [2] [nM]
CC[C@H](C)[C@H](NC(=O)[C@H](CCCCN)NC(=O)[C@H](CC(=O)O)NC(=O)[C@H](CC(C)C)NC(=O)[C@](C)(CC(C)C)NC(=O)[C@@H](NC(=O)[C@H](CO)NC(=O)[C@H](Cc1ccc(O)cc1)NC(=O)[C@H](CC(=O)O)NC(=O)[C@H](CO)NC(=O)[C@@H](NC(=O)[C@H](Cc1ccccc1)NC(=O)[C@@H](NC(=O)CNC(=O)[C@H](CCC(=O)O)NC(=O)C(C)(C)NC(=O)[C@@H](N)Cc1ccc(O)cc1)[C@@H](C)O)[C@@H](C)CC)[C@@H](C)CC)C(=O)N[C@@H](Cc1c[nH]cn1)C(=O)N[C@@H](CCC(N)=O)C(=O)NC(C)(C)C(=O)N[C@@H](CC(=O)O)C(=O)N[C@@H](Cc1ccccc1)C(=O)N[C@H](C(=O)N[C@@H](CCC(=O)O)C(=O)N[C@@H](Cc1ccc(O)cc1)C(=O)N[C@@H](CCCCNC(=O)COCCOCCNC(=O)COCCOCCNC(=O)CC[C@H](NC(=O)CCCCCCCCCCCCCCCCCCC(=O)O)C(=O)O)C(=O)N[C@@H](CC(C)C)C(=O)N[C@@H](CCC(=O)O)C(=O)N[C@@H](CCC(N)=O)C(=O)NCC(=O)N1CCC[C@H]1C(=O)N[C@@H](CO)C(=O)N[C@@H](CO)C(=O)NCC(=O)N[C@@H](C)C(=O)N1CCC[C@H]1C(=O)N1CCC[C@H]1C(=O)N1CCC[C@H]1C(=O)N[C@@H](CO)C(N)=O)C(C)C [Example 92] (H-Y[Aib]EGTFISDYSI[αMeL]LDKIHQ[Aib]DFVEYK([AEEA-AEEA-γGlu-C20 diacid])LEQGPSSGAPPPS-NH2) | 0.0191 | > 5000
CC[C@H](C)[C@H](NC(=O)[C@H](CCCCN)NC(=O)[C@H](CC(=O)O)NC(=O)[C@H](CC(C)C)NC(=O)[C@H](CC(C)C)NC(=O)[C@@H](NC(=O)[C@H](CO)NC(=O)[C@H](Cc1ccc(O)cc1)NC(=O)[C@H](CC(=O)O)NC(=O)[C@H](CO)NC(=O)[C@@H](NC(=O)[C@H](Cc1ccccc1)NC(=O)[C@@H](NC(=O)CNC(=O)[C@H](CCC(=O)O)NC(=O)[C@@H](C)NC(=O)[C@@H](N)Cc1ccc(O)cc1)[C@@H](C)O)[C@@H](C)CC)[C@@H](C)CC)C(=O)N[C@@H](C)C(=O)N[C@@H](CCC(N)=O)C(=O)NC(C)(C)C(=O)N[C@@H](CC(=O)O)C(=O)N[C@@H](Cc1ccccc1)C(=O)N[C@H](C(=O)N[C@@H](CC(N)=O)C(=O)N[C@@H](Cc1c[nH]c2ccccc12)C(=O)N[C@@H](CCCCNC(=O)COCCOCCNC(=O)COCCOCCNC(=O)CC[C@H](NC(=O)CCCCCCCCCCCCCCCCC(=O)O)C(=O)O)C(=O)N[C@@H](CC(C)C)C(=O)N[C@@H](C)C(=O)N[C@@H](CCC(N)=O)C(=O)NCC(=O)N1CCC[C@H]1C(=O)N[C@@H](CO)C(=O)N[C@@H](CO)C(=O)NCC(=O)N[C@@H](C)C(=O)N1CCC[C@H]1C(=O)N1CCC[C@H]1C(=O)N1CCC[C@H]1C(=O)N[C@@H](CO)C(N)=O)C(C)C [Example 93] (H-Y[dA]EGTFISDYSILLDKIAQ[Aib]DFVNWK([AEEA-AEEA-γGlu-C18 diacid])LAQGPSSGAPPPS-NH2) | 0.00482 | > 5000
CC[C@H](C)[C@H](NC(=O)[C@H](CO)NC(=O)[C@H](Cc1ccc(O)cc1)NC(=O)[C@H](CC(=O)O)NC(=O)[C@H](CO)NC(=O)[C@@H](NC(=O)[C@](C)(Cc1ccccc1F)NC(=O)[C@@H](NC(=O)CNC(=O)[C@H](CCC(=O)O)NC(=O)C(C)(C)NC(=O)[C@@H](N)Cc1ccc(O)cc1)[C@@H](C)O)[C@@H](C)CC)C(=O)N[C@@H](C)C(=O)N[C@@H](CC(C)C)C(=O)N[C@@H](CC(=O)O)C(=O)N[C@@H](CCCCN)C(=O)N[C@H](C(=O)N[C@@H](Cc1c[nH]cn1)C(=O)N[C@@H](CCC(N)=O)C(=O)NC(C)(C)C(=O)N[C@@H](CCC(=O)O)C(=O)N[C@@H](Cc1ccccc1)C(=O)N[C@H](C(=O)N[C@@H](CC(N)=O)C(=O)N[C@@H](Cc1ccc(O)cc1)C(=O)N[C@@H](CCCCNC(=O)COCCOCCNC(=O)COCCOCCNC(=O)CC[C@H](NC(=O)CCCCCCCCCCCCCCCCC(=O)O)C(=O)O)C(=O)N[C@@H](CC(C)C)C(=O)N[C@@H](C)C(=O)NCC(=O)NCC(=O)N1CCC[C@H]1C(=O)N[C@@H](CO)C(=O)N[C@@H](CO)C(=O)NCC(=O)N[C@@H](C)C(=O)N1CCC[C@H]1C(=O)N1CCC[C@H]1C(=O)N1CCC[C@H]1C(=O)N[C@@H](CO)C(N)=O)C(C)C)[C@@H](C)CC [Example 94] (H-Y[Aib]EGT[αMePhe(2-F)]ISDYSIALDKIHQ[Aib]EFVNYK([AEEA-AEEA-γGlu-C18 diacid])LAGGPSSGAPPPS-NH2) | 0.00436 | > 5000
CC[C@H](C)[C@H](NC(=O)[C@H](CO)NC(=O)[C@H](Cc1ccc(O)cc1)NC(=O)[C@H](CC(=O)O)NC(=O)[C@H](CO)NC(=O)[C@@H](NC(=O)[C@](C)(Cc1ccccc1F)NC(=O)[C@@H](NC(=O)CNC(=O)[C@H](CCC(=O)O)NC(=O)C(C)(C)NC(=O)[C@@H](N)Cc1ccc(O)cc1)[C@@H](C)O)[C@@H](C)CC)C(=O)N[C@@H](C)C(=O)N[C@@H](CC(C)C)C(=O)N[C@@H](CC(=O)O)C(=O)N[C@@H](CCCCN)C(=O)N[C@H](C(=O)N[C@@H](Cc1c[nH]cn1)C(=O)N[C@@H](CCC(N)=O)C(=O)NC(C)(C)C(=O)N[C@@H](CCC(=O)O)C(=O)N[C@@H](Cc1ccccc1)C(=O)N[C@H](C(=O)N[C@@H](CC(N)=O)C(=O)N[C@@H](Cc1ccc(O)cc1)C(=O)N[C@@H](CCCCNC(=O)COCCOCCNC(=O)COCCOCCNC(=O)CC[C@H](NC(=O)CCCCCCCCCCCCCCCCCCC(=O)O)C(=O)O)C(=O)N[C@@H](CC(C)C)C(=O)N[C@@H](CCC(=O)O)C(=O)NCC(=O)NCC(=O)N1CCC[C@H]1C(=O)N[C@@H](CO)C(=O)N[C@@H](CO)C(=O)NCC(=O)N[C@@H](C)C(=O)N1CCC[C@H]1C(=O)N1CCC[C@H]1C(=O)N1CCC[C@H]1C(=O)N[C@@H](CO)C(N)=O)C(C)C)[C@@H](C)CC [Example 95] (H-Y[Aib]EGT[αMePhe(2-F)]ISDYSIALDKIHQ[Aib]EFVNYK([AEEA-AEEA-γGlu-C20 diacid])LEGGPSSGAPPPS-NH2) | 0.0272 | > 5000
CC[C@H](C)[C@H](NC(=O)[C@H](CO)NC(=O)[C@H](Cc1ccc(O)cc1)NC(=O)[C@H](CC(=O)O)NC(=O)[C@H](CO)NC(=O)[C@@H](NC(=O)[C@H](Cc1ccccc1)NC(=O)[C@@H](NC(=O)CNC(=O)[C@H](CCC(=O)O)NC(=O)C(C)(C)NC(=O)[C@@H](N)Cc1ccc(O)cc1)[C@@H](C)O)[C@@H](C)CC)C(=O)N[C@@H](C)C(=O)N[C@@H](CC(C)C)C(=O)N[C@@H](CC(=O)O)C(=O)N[C@@H](CCCCN)C(=O)N[C@H](C(=O)N[C@@H](Cc1c[nH]cn1)C(=O)N[C@@H](CCC(N)=O)C(=O)NC(C)(C)C(=O)N[C@@H](CCC(=O)O)C(=O)N[C@@H](Cc1ccccc1)C(=O)N[C@H](C(=O)N[C@@H](CC(N)=O)C(=O)N[C@@H](Cc1ccc(O)cc1)C(=O)N[C@@H](CCCCNC(=O)COCCOCCNC(=O)COCCOCCNC(=O)CC[C@H](NC(=O)CCCCCCCCCCCCCCCCCCC(=O)O)C(=O)O)C(=O)N[C@@H](CC(C)C)C(=O)N[C@@H](C)C(=O)NCC(=O)NCC(=O)N1CCC[C@H]1C(=O)N[C@@H](CO)C(=O)N[C@@H](CO)C(=O)NCC(=O)N[C@@H](C)C(=O)N1CCC[C@H]1C(=O)N1CCC[C@H]1C(=O)N1CCC[C@H]1C(=O)N[C@@H](CO)C(N)=O)C(C)C)[C@@H](C)CC [Example 96] (H-Y[Aib]EGTFISDYSIALDKIHQ[Aib]EFVNYK([AEEA-AEEA-γGlu-C20 diacid])LAGGPSSGAPPPS-NH2) | 0.0251 | > 5000
CC[C@H](C)[C@H](NC(=O)[C@H](CO)NC(=O)[C@H](Cc1ccc(O)cc1)NC(=O)[C@H](CC(=O)O)NC(=O)[C@H](CO)NC(=O)[C@@H](NC(=O)[C@](C)(Cc1ccccc1)NC(=O)[C@@H](NC(=O)CNC(=O)[C@H](CCC(=O)O)NC(=O)C(C)(C)NC(=O)[C@@H](N)Cc1ccc(O)cc1)[C@@H](C)O)[C@@H](C)CC)C(=O)N[C@@H](C)C(=O)N[C@@H](CC(C)C)C(=O)N[C@@H](CC(=O)O)C(=O)N[C@@H](CCCCN)C(=O)N[C@H](C(=O)N[C@@H](Cc1c[nH]cn1)C(=O)N[C@@H](CCC(N)=O)C(=O)NC(C)(C)C(=O)N[C@@H](CCC(=O)O)C(=O)N[C@@H](Cc1ccccc1)C(=O)N[C@H](C(=O)N[C@@H](CC(N)=O)C(=O)N[C@@H](Cc1ccc(O)cc1)C(=O)N[C@@H](CCCCNC(=O)COCCOCCNC(=O)COCCOCCNC(=O)CC[C@H](NC(=O)CCCCCCCCCCCCCCCCCCC(=O)O)C(=O)O)C(=O)N[C@@H](CC(C)C)C(=O)N[C@@H](C)C(=O)NCC(=O)NCC(=O)N1CCC[C@H]1C(=O)N[C@@H](CO)C(=O)N[C@@H](CO)C(=O)NCC(=O)N[C@@H](C)C(=O)N1CCC[C@H]1C(=O)N1CCC[C@H]1C(=O)N1CCC[C@H]1C(=O)N[C@@H](CO)C(N)=O)C(C)C)[C@@H](C)CC [Example 97] (H-Y[Aib]EGT[αMeF]ISDYSIALDKIHQ[Aib]EFVNYK([AEEA-AEEA-γGlu-C20 diacid])LAGGPSSGAPPPS-NH2) | 0.009 | > 5000
